Tests used:
SARM1 SAM-TIR = molecular target: T1, SARM1 SAM-TIR (Homo sapiens, UniProt Q6SZW1); experiment: biochemical; conditions: SAM-TIR lysate 5 μg/mL, 2 h pre-incubation, 5 μM NAD+, RapidFire MS of NAD+ and ADPR; read-out: SARM1 IC50;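 further: inhibition of SARM1 SAM-TIR NADase activity, i.e. NAD+ cleavage, using lysate of NRK1-HEK293T cells overexpressing the SAM-TIR fragment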
T1 construct: a fragment of the SARM1 molecule encompassing the SAM and TIR domains; made in house; host or cells: NRK1-HEK293T cells, transiently transfected; the cleared, unpurified lysate was used as the enzyme
T1 sequence (Q6SZW1 409-724 limits assumed): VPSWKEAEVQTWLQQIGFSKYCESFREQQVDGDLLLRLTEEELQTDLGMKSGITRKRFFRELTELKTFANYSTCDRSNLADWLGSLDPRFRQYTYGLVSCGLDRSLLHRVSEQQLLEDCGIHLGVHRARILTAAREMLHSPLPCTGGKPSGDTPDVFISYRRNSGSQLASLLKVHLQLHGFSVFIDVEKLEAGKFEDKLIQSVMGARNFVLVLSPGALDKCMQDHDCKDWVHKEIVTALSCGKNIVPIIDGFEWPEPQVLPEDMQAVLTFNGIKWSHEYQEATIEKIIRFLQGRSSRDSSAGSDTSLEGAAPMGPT

[1] = test system: mouse dorsal root ganglion (DRG) drop culture; experiment: Axon degeneration assay in mouse DRG drop culture; assay type: cell-based; conditions: protection of axon fragmentation, axonal transection or chemotoxic stimuli
Method: This Example illustrates an in vitro axon degeneration assay used to characterize compounds of Formula I or Formula II. This assay is used to test the efficacy of the compounds of Formula I or Formula II to prevent axonal degeneration in a mouse dorsal root ganglion (DRG) drop culture.
Mouse DRG Drop culture: Mouse dorsal root ganglion neurons (DRGs) were dissected out of E12.5 CD1 mice (50 ganglion per embryo) and incubated with 0.5% Trypsin solution containing 0.02% EDTA (Gibco) at 37° C. for 15 min. The cells were then triturated by gentle pipetting and washed 3 times with DRG growth medium (Neurobasal medium (Gibco) containing 2% B27 (Invitrogen), 100 ng/ml 2.5S NGF (Harland Bioproducts), […] 5-fluoro-2′deoxyuridine (Sigma), penicillin, and streptomycin). Cells were suspended in the DRG growth medium. DRG drop cultures were created by spotting 5000 cells/well into the center of each well of a 96-well tissue culture plate coated with poly-D-Lysine (0.1 mg/ml; Sigma) and laminin ([…]; Invitrogen). Cells were allowed to adhere to the plates in a humidified tissue culture incubator (5% CO2) for 15 min and then DRG growth medium was gently added ([…]).
Axon degeneration assay: Axonal degeneration was stimulated either by manual axonal transection using a scalpel blade, or chemotoxic stimuli. After an appropriate experimental time period, the DRG cultures were fixed in 1% PFA plus sucrose and kept in the fridge prior to imaging. Bright-field images of DRG axons and cell bodies were collected using the 20× water immersion lens of a Phenix automated confocal microscope (PerkinElmer) and quantitation of axonal performed using in-house developed scripts (Acapella, PerkinElmer).

IC50 (SARM1 SAM-TIR) [µM] | SMILES | IC50 [1] [µM]
< 1 | Cn1sc(Nc2ccccc2C(F)(F)F)c(C#N)c1=O [Example 31] | 10 to 30
1 to 5 | N#Cc1c(O)nsc1Nc1cccc(C(F)(F)F)c1 [Example 12] | < 10
1 to 5 | Cc1ccccc1Nc1snc(O)c1C#N [Example 7] | 10 to 30
1 to 5 | N#Cc1c(O)nsc1Nc1cccc2ncccc12 [Example 27] | < 10

Source: patent publication US12624026B2, “Inhibitors of SARM1” (Disarm Therapeutics, Inc., priority 2018, dated 2026)
